Read-outs that look alike come from different tables or passages of the source.
Key:
H1 histamine receptor = H1 histamine receptor (Homo sapiens, UniProt P35367); experiment: Binding to the H1 histamine receptor
Experimental: Example 45 Compound and Dimebon were tested for binding to the H1 histamine receptor.

aged Fisher 344 rats = experiment: Aged rats: hippocampal neurogenesis, Morris water maze, apoptosis, body weight; assay type: in vivo, rat (Fisher 344)
Experimental: FIG. 20A, FIG. 20B, FIG. 20C, FIG. 20D and FIG. 20E: Effect of Example 45 Compound in aged rats. (FIG. 20A) Example 45 Compound (20 mg/kg/d, i.p.) and BrdU (50 mg/kg, i.p.) were administered daily for 7 days to 12-18 month old Fisher 344 rats (n=4 in each group). P7C3 promoted neural precursor cell proliferation by roughly 5 fold compared to vehicle. (*p<0.001, Students t test). […] These micrographs were taken at the same magnification. Scale bar=[…]. Data are expressed as mean+/−SEM. […] Data are expressed as mean+/−SEM. […] Data are expressed as mean+/−SEM.
Many more of the BrdU-labeled cells were noted to have migrated into the granular layer in Example 45 Compound-treated rats in comparison to vehicle treated animals, consistent with their functional incorporation into the dentate gyrus as properly wired neurons. The scale bar represents […]. […] The scale bar represents […]. […] In all graphs data are expressed as mean±SEM.
It was first evaluated whether Example 45 Compound would enhance hippocampal neurogenesis in aged rats as it does in adult mice. Rats were injected with a daily, IP dose of either […] of Example 45 Compound or vehicle, coinjected with a daily dose of BrdU, and then sacrificed after 7 days for immunohistochemistry. […] Having observed proneurogenic efficacy of Example 45 Compound in this short term assay, it was then tested whether prolonged administration of Example 45 Compound might ameliorate age-related decline in cognition by subjecting 18-month-old rats to daily administration of either […] of Example 45 Compound or vehicle only for 2 months. Animals of both groups were further subjected to weekly IP administration of BrdU (50 mg/kg) for later immunohistochemical measurements of hippocampal neurogenesis. As a control, both Example 45 Compound- and vehicle-treated groups were confirmed to display equal ability to physically participate in the task, and learn the task, as shown by decreased latency times to find the hidden platform over the 5 day training period, both before and after 2 months of treatment (FIG. 20B). Moreover, neither swim speed (FIG. 20C) nor locomotor activity (FIG. 20D) varied with age or treatment paradigm.
After 2 months of compound or vehicle administration, cognitive ability was assessed blind to treatment group by removing the goal platform. Animals of the Example 45 Compound-treated group retained a statistically significant improvement in ability to navigate to the region of the missing platform, as evidenced by performance in the probe test.
After behavioral testing, animals were sacrificed for immunohistochemical detection of BrdU and CCSP3. […] Next it was tested whether Example 45 Compound-mediated preservation of body weight in aged rats operates via central or peripheral modes of action.

[1] = system: Ghsr-null and wild-type mice; experiment: Social interaction test after CSDS; assay type: in vivo, mouse
From the text: FIG. 41. Effects of P7C3 on CSDS-induced depressive-like behavior, as measured by the social interaction test. (a, b) Times spent in the interaction zone with target present for wild-type (a) and Ghsr-null (b) mice. (c, d) Times spent in the corners by wild-type (c) and Ghsr-null (d) mice. Group sizes indicated. *P<0.05, **P<0.01, as compared to respective vehicle-treated control group.
Next, P7C3 and two chemical analogs were employed to investigate whether P7C3-mediated preservation of ventral DG neurogenesis during CSDS might correlate with an antidepressant-like behavioral effect. […] Conversely, the analog P7C3-S184 (Example 178) replaces bromines on the carbazole moiety with chlorines and the aniline moiety with a naphthyl amine, leaving the analog completely devoid of neuroprotective activity.
CSDS was performed similar to methods used previously in the lab (J. C. Chuang et al., Ghrelin mediates stress-induced food-reward behavior in mice. J Clin Invest 121, 2684 (2011)). Test mice were housed individually in large cages paired with a CD1 aggressor mouse, separated by a plastic divider with holes so as to allow sensory contact. For 5 min a day, the plastic divider was removed, exposing test mice to the CD1 mouse. After 5 min of exposure to the CD1 mouse, test mice were again separated and paired with a new CD1 mouse for the remainder of the 24 hours. This process was repeated for 10 days. Following the 5 min sensory contact on the 10th day, mice were separated and singly housed prior to social interaction test. Control mice were housed in equivalent cages with members of the same strain and handled daily. The social interaction test consists of placing mice in an arena with a small cage at one end. The movements of test mice were tracked for 2.5 min in the absence of another mouse, followed by 2.5 min in the presence of a novel CD1 mouse, or the “target”. Ethovision 3.0 software (Noldus, Leesburg, Va.) measured the duration spent in the interaction zone or in the corners. As done previously, data is presented as time spent in the interaction zone when the target is present or time spent in the corners when the target is present (J. C. Chuang et al., Ghrelin mediates stress-induced food-reward behavior in mice. J Clin Invest 121, 2684 (2011)).

Sequence of H1 histamine receptor (P35367 whole entry): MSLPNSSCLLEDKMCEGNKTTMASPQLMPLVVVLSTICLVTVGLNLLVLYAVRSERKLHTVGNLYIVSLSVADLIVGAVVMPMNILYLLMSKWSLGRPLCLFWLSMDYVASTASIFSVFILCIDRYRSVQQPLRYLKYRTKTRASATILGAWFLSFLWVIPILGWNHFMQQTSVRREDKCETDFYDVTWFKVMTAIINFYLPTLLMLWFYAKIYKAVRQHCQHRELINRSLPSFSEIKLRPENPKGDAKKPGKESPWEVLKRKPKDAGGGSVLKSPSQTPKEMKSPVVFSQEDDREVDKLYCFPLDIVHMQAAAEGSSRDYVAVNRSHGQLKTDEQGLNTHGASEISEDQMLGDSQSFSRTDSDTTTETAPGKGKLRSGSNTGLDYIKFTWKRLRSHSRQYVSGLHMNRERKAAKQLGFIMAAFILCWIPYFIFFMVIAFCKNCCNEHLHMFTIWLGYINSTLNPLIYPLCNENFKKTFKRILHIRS

SMILES: Cc1ccc2c(c1)c1c(n2CCc2ccc(C)nc2)CCN(C)C1 [Dimebon, 2,3,4,5-Tetrahydro-2,8-dimethyl-5-(2-(6-methyl-3-pyridyl)ethyl)-1H-pyrido(4,3-b)indole, reference compound]
- IC50 (H1 histamine receptor): < 0.1 µM

SMILES: OC(CNc1ccccc1)Cn1c2ccc(Br)cc2c2cc(Br)ccc21 (stereo not drawn) [Example 45 Compound]
- apoptotic cells in the dentate gyrus (aged Fisher 344 rats; after 2 months of treatment): statistically significant reduction in the number of CCSP3-positive cells
- level of BrdU-positive neurons in the dentate gyrus versus vehicle (aged Fisher 344 rats; after 2 months of treatment): 3 fold
- postfasting blood glucose levels (aged Fisher 344 rats; aged rats): had no effect on postfasting blood glucose levels
- body weight with aging (aged Fisher 344 rats; aged rats, 2 months of treatment): helped rats maintain stable body weight with aging
- increase in BrdU labeling in the dentate gyrus relative to vehicle (aged Fisher 344 rats; daily IP for 7 days, aged rats): 500%
- crossings of the location previously containing the platform (aged Fisher 344 rats; probe test after 2 months of treatment): significantly more often than vehicle-treated rats
- percentage of time in the general goal area (quadrant previously containing the platform) (aged Fisher 344 rats; probe test after 2 months of treatment, vehicle 28.1%±2.6%): 35.5%±2.2%
- IC50 (H1 histamine receptor; both enantiomers): > 10 µM

SMILES: OC(CNc1cccc2ccccc12)Cn1c2ccc(Cl)cc2c2cc(Cl)ccc21 (stereo not drawn) [Example P7C3-S184]
- depression-like behavior, social interaction test ([1]; CSDS-exposed Ghsr-null mice): had no effect on stress-induced depressive-like behavior in either genotype
- depression-like behavior, social interaction test ([1]; CSDS-exposed wild-type mice): had no effect on stress-induced depressive-like behavior in either genotype

SMILES: OC(CNc1ccccc1)Cn1c2ccc(Br)cc2c2cc(Br)ccc21 (stereo not drawn) [Example P7C3]
- neural precursor cell proliferation (BrdU) compared to vehicle (aged Fisher 344 rats; daily i.p. for 7 days, 12-18 month old Fisher 344 rats): roughly 5 fold
- depression-like behavior, social interaction test ([1]; CSDS-exposed Ghsr-null mice): showed antidepressant efficacy
- depression-like behavior, social interaction test ([1]; CSDS-exposed wild-type mice): had no significant effect on depression-like behavior
- social interaction test performance ([1]; non-CSDS-exposed control mice): Neither P7C3 nor the two tested analogs influenced social interaction test performance

Source: patent US10183011B2, “Anti-depression compounds” (Board of Regents of the University of Texas System, priority 2009, dated 2019)
